Where two headings read alike, the source gives them in different places.
How the values were obtained:
Aβ40 = assay: In vitro BACE cell-based assay (Aβ40 sandwich ELISA, cells stably expressing APP); conditions: Homo sapiens
Procedure, shortened: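 Read-out is Aβ40 in cell supernatants, quantified by sandwich ELISA (capture 3 h, detection 2 h, both 4° C) with Delfia time-resolved fluorescence. Cells stably expressing APP were dosed across 10 concentrations from 100 μM or 10 μM top, 0.1% DMSO final; IC50 fitted from percent of control.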

BACE = BACE (Homo sapiens, UniProt P56817); assay: In vitro enzymatic BACE FRET assay; assay type: biochemical; conditions: average IC50, enzyme assay; read-out: BACE 1 FRET assay
Procedure, shortened: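 Fluorescence […] after Tris quench reports cleavage of a 50 nM quenched peptide substrate over 1 h. Beforehand, 0.2 nM enzyme sits 1 h with inhibitor dilutions. Buffer: 0.05 M acetate pH 4.2, 100 uM genapol, 10% DMSO final.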

Abeta 40 = assay: In vivo inhibition of beta-secretase: Abeta 40 reduction in CSF and brain of the rat; conditions: after 4 hrs; for inhibition in vivo at 10 mg/kg: 10 mpk; for % reduction of rat CSF levels / % reduction of rat brain levels: at 30 mpk
Description: In Vivo Inhibition of Beta-Secretase
Several animal models, including mouse, rat, dog, and monkey, may be used to screen for inhibition of beta-secretase activity in vivo following administration of a test compound sample. Animals used in this invention can be wild type, transgenic, or gene knockout animals. For example, the Tg2576 mouse model, prepared and conducted as described in Hsiao et al., 1996, Science 274, 99-102, and other non-transgenic or gene knockout animals are useful to analyze in vivo inhibition of Amyloid beta peptide (Abeta) production in the presence of inhibitory test compounds. Generally, 2 to 18 month old Tg2576 mice, gene knockout mice or non-transgenic animals are administered test compounds formulated in vehicles, such as cyclodextran, phosphate buffers, hydroxypropyl methylcellulose or other suitable vehicles. One to twenty-four hours following the administration of compound, animals are sacrificed, and brains as well as cerebrospinal fluid (CSF) and plasma are removed for analysis of A-beta levels and drug or test compound concentrations (Dovey et al., 2001, Journal of Neurochemistry, 76,173-181) Beginning at time 0, animals are administered by oral gavage, or other means of delivery such as intravenous injection, an inhibitory test compound of up to 100 mg/kg in a standard, conventional formulation, such as 2% hydroxypropyl methylcellulose, 1% Tween80. A separate group of animals receive 2% hydroxypropyl methylcellulose, 1% Tween80 alone, containing no test compound, and serve as a vehicle-control group. At the end of the test period, animals are sacrificed and brain tissues, plasma or cerebrospinal fluid are collected. Brains are either homogenized in 10 volumes (w/v) of 0.2% diethylamine (DEA) in 50 mM NaCl (Best et al., 2005, Journal of Pharmacology and Experimental Therapeutics, 313, 902-908), or in 10 volumes of 0.5% TritonX-100 in Tris-buffered saline (pH at about 7.6). Homogenates are centrifuged at 355,000 g, 4° C. for 30 minutes. CSF or brain supernatants are then analyzed for the presence of A-beta peptide by specific sandwich ELISA assays based on ECL (Electrochemiluminescence) technology. For example, rat Abeta40 is measured using biotinylated-4G8 (Signet) as a capture antibody and Fab40 (an in-house antibody specific to the C-terminal of Abeta40) as a detection antibody. For example, 4 hours after administration of 30 mg/kg oral dose of the test compound in 2% hydroxypropyl methylcellulose, 1% Tween80 (pH2.2) to 200 g male Sprague Dawley rats, amyloid beta peptide levels are measured for reduction by X % and Y % in cerebrospinal fluid and brain, respectively, when compared to the levels measured in the vehicle-treated rats. • Actual vehicles used: Oral: 2% HPMC, 1% Tween80, pH 2.2 • IV: 5% EtOH, 45% Propylene glycol in 5% Dextrose
The compounds of the invention may be shown to reduce the formation and/or deposition of amyloid beta peptide in the cerebrospinal fluid (CSF) as well as in the brain of a mouse or rat at either 3 mpk, 10 mpk or 30 mpk (mpk=mg compound per kg weight of the animal) dosing concentrations after 4 hrs.

[1] = HEK293, average IC50, cell assay, HEK cells
[2] = Abeta 40, rat CSF, read-out: % reduction of rat CSF levels at 10 pmk
[3] = Abeta 40, rat brain, read-out: % reduction of rat brain levels at 10 mpk
[4] = HEK293, average IC50, read-out: HEK cell assay

Chain of BACE (P56817 46-501, species assumed): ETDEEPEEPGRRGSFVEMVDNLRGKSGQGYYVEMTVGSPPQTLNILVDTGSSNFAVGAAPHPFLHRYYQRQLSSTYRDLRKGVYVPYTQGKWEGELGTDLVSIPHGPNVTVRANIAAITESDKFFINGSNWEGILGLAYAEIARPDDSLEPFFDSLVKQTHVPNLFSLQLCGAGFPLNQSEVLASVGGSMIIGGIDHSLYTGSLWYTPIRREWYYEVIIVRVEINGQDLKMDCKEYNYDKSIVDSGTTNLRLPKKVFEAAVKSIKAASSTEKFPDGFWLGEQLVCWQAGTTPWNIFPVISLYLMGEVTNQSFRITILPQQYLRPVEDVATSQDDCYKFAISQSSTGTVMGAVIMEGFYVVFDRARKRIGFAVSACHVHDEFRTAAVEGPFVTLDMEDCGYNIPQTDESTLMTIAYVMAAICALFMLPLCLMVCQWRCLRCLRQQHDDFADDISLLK

SMILES	IC50 (Aβ40; [1]) [nM]	IC50 (BACE) [nM]	inhibition in vivo at 10 mg/kg (Abeta 40; [2]) [%]	inhibition in vivo at 10 mg/kg (Abeta 40; [3]) [%]	IC50 (Aβ40; [4]) [nM]	% reduction of rat CSF levels (Abeta 40; Abeta 40, rat CSF) [% at 30 mpk]	% reduction of rat brain levels (Abeta 40; Abeta 40, rat brain) [% at 30 mpk]
NC1=N[C@@]2(CCO1)c1cc(-c3cccnc3F)ccc1Oc1cnc(C3=CCCOC3)cc12 [Example 153, (S)-3-(5,6-dihydro-2H-pyran-3-yl)-7-(2-fluoropyridin-3-yl)-5′,6′-dihydrospiro[chromeno[2,3-c]pyridine-5,4′-[1,3]oxazin]-2′-amine]	2.6	2	78	64	–	–	–
CC(C)(C)C#Cc1cc2c(cn1)Oc1ccc(-c3cccnc3F)cc1[C@@]21CCOC(N)=N1 [Example 154, (S)-3-(3,3-dimethylbut-1-ynyl)-7-(2-fluoropyridin-3-yl)-5′,6′-dihydrospiro[chromeno[2,3-c]pyridine-5,4′-[1,3]oxazin]-2′-amine]	5	5.8	57	37	–	–	–
NC1=N[C@@]2(CCO1)c1cc(-c3cccnc3F)ccc1Oc1cnc(-c3cncc(F)c3)cc12 [Example 155, (5S)-7-(2-fluoro-3-pyridinyl)-3-(5-fluoro-3-pyridinyl)-5′,6′-dihydrospiro[chromeno[2,3-c]pyridine-5,4′-[1,3]oxazin]-2′-amine]	6.2	3.8	68	53	–	–	–
NC1=N[C@@]2(CCO1)c1cc(-c3cccnc3)ccc1Oc1c(F)cc(C3=CCOCC3)cc12 [Example 156, (4S)-2′-(3,6-dihydro-2H-pyran-4-yl)-4′-fluoro-7′-(3-pyridinyl)-5,6-dihydrospiro[1,3-oxazine-4,9′-xanthen]-2-amine]	4.2	4.8	27	8	–	–	–
NC1=N[C@@]2(CCO1)c1cc(-c3cccnc3F)ccc1Oc1c(F)cc(C3=CCOCC3)cc12 [Example 163, (S)-2′-(3,6-dihydro-2H-pyran-4-yl)-4′-fluoro-7′-(2-fluoropyridin-3-yl)-5,6-dihydrospiro[[1,3]oxazine-4,9′-xanthen]-2-amine]	–	2.6	52	28	6	–	–
NC1=N[C@@]2(CCO1)c1cc(-c3cccnc3)ccc1Oc1c(F)cc(C3=CCCOC3)cc12 [Example 164, (S)-2′-(5,6-dihydro-2H-pyran-3-yl)-4′-fluoro-7′-(pyridin-3-yl)-5,6-dihydrospiro[[1,3]oxazine-4,9′-xanthen]-2-amine]	–	2.8	35	12	2.7	–	–
NC1=N[C@@]2(CCO1)c1cc(-c3cccnc3F)ccc1Oc1c(F)cc(-c3ccncc3)cc12 [Example 166, (S)-4′-fluoro-7′-(2-fluoropyridin-3-yl)-2′-(pyridin-4-yl)-5,6-dihydrospiro[[1,3]oxazine-4,9′-xanthen]-2-amine]	–	6	42	25	8.2	–	–
NC1=N[C@@]2(CCO1)c1cc(-c3cccnc3F)ccc1Oc1c(F)cc(-c3cccnc3)cc12 [Example 168, (S)-4′-fluoro-7′-(2-fluoropyridin-3-yl)-2′-(pyridin-3-yl)-5,6-dihydrospiro[[1,3]oxazine-4,9′-xanthen]-2-amine]	–	3.5	44	18	6.3	–	–
NC1=N[C@@]2(CCO1)c1cc(-c3cccnc3F)ccc1Oc1c(F)cc(C3=CCCOC3)cc12 [Example 173, (S)-2′-(5,6-dihydro-2H-pyran-3-yl)-4′-fluoro-7′-(2-fluoropyridin-3-yl)-5,6-dihydrospiro[[1,3]oxazine-4,9′-xanthen]-2-amine]	–	1.1	40	14	2.9	–	–
CC(C)(F)COc1cc(F)c2c(c1)[C@]1(CCOC(N)=N1)c1cc(-c3cccnc3)ccc1O2 [Example 176, (S)-4′-fluoro-2′-(2-fluoro-2-methylpropoxy)-7′-(pyridin-3-yl)-5,6-dihydrospiro[[1,3]oxazine-4,9′-xanthen]-2-amine]	–	6.1	30	13	8.5	–	–
CC(C)(F)COc1cc(F)c2c(c1)[C@]1(CCOC(N)=N1)c1cc(-c3cccnc3F)ccc1O2 [Example 182, (S)-4′-fluoro-2′-(2-fluoro-2-methylpropoxy)-7′-(2-fluoropyridin-3-yl)-5,6-dihydrospiro[[1,3]oxazine-4,9′-xanthen]-2-amine]	–	2.5	59	30	4.1	–	–
NC1=N[C@@]2(CCO1)c1cc(-c3cccnc3F)ccc1Oc1c(F)cc(N3CCOCC3)cc12 [Example 184, (S)-4′-fluoro-7′-(2-fluoropyridin-3-yl)-2′-morpholino-5,6-dihydrospiro[[1,3]oxazine-4,9′-xanthen]-2-amine]	–	4.8	19	12	6.9	–	–
NC1=N[C@@]2(CCO1)c1cc(-c3cccnc3F)ccc1Oc1c(F)cc(N3CCC(F)(F)CC3)cc12 [Example 185, (4S)-2′-(4,4-difluoro-1-piperidinyl)-4′-fluoro-7′-(2-fluoro-3-pyridinyl)-5,6-dihydrospiro[1,3-oxazine-4,9′-xanthen]-2-amine]	–	4.4	–	–	9.6	53	26
NC1=N[C@@]2(CCS1)c1cc(-c3cccnc3F)ccc1Oc1c(F)cc(C3=CCCOC3)cc12 [Example 201, (S)-2′-(5,6-dihydro-2H-pyran-3-yl)-4′-fluoro-7′-(2-fluoropyridin-3-yl)-5,6-dihydrospiro[[1,3]thiazine-4,9′-xanthen]-2-amine]	–	1.4	–	–	9.7	80	65
NC1=N[C@@]2(COC1)c1cc(-c3cc(F)ccc3F)ccc1Oc1ncc(-c3ccnc(F)c3)cc12 [Example 220, (S)-7-(2,5-difluorophenyl)-3-(2-fluoropyridin-4-yl)-2′,6′-dihydrospiro[chromeno[2,3-b]pyridine-5,3′-[1,4]oxazin]-5′-amine]	–	2	38	2	4.4	–	–
NC1=N[C@@]2(CCO1)c1cc(-c3cncc(F)c3)ccc1Oc1c2cc(-c2ccnc(F)c2)nc1F [Example 226, (S)-1-fluoro-7-(5-fluoropyridin-3-yl)-3-(2-fluoropyridin-4-yl)-5′,6′-dihydrospiro[chromeno[2,3-c]pyridine-5,4′-[1,3]oxazin]-2′-amine]	–	1.4	83	74	1.6	–	–
NC1=N[C@@]2(CCO1)c1cc(-c3cccnc3)ccc1Oc1c2cc(-c2ccnc(F)c2)nc1F [Example 239, (S)-1-fluoro-3-(2-fluoropyridin-4-yl)-7-(pyridin-3-yl)-5′,6′-dihydrospiro[chromeno[2,3-c]pyridine-5,4′-[1,3]oxazin]-2′-amine]	–	35	68	48	16.1	–	–

Reference: patent publication US9012446B2, “Amino-oxazines and amino-dihydrothiazine compounds as beta-secretase modulators and methods of use” (Amgen Inc., priority 2010, dated 2015)
